From patent US12234232B2, “Aromatic heterocyclic compound with kinase inhibitory activity” (SHANGHAI ENNOVABIO PHARMACEUTICALS CO., LTD., priority 2018, dated 2025)

Key:
JAK1 [1] = biological target: T1, JAK1 (Homo sapiens, UniProt P23458); assay: In vitro JAK1 kinase activity assay (HTRF kinEASE TK); format: biochemical; parameters: purchased Thermo Fisher; details: 1.1 μM ATP, 60 minutes, room temperature; read-out: IC50 JAK1 (enzyme activity assay)
Experimental: (§1) Recombinant human JAK1 protein was purchased from Thermo Fisher. JAK2 and JAK3 proteins were purchased from Carna Biosciences. HTRF kinEASE TK kit was purchased from Cisbio Bioassays. BioTek microplate reader Synergy Neo 2 was used to read the plate.
(§2) The test compounds were of 4-fold serial dilution, and the final concentration ranged from 10 μM to 0.04 nM in duplicates for each concentration. The concentration of DMSO in the reaction system was 1%.
The reaction included 0.5 ng/μl JAK 1 protein kinase, 1 μM TK Substrate-biotin peptide substrate, 1.1 μM ATP, 1× enzymatic buffer, 5 mM MgCl2, 1 mM MnCl2, 1 mM DTT, and 2.5 nM SEB. The detection plate was White Proxiplate 384-Plus plate (PerkinElmer), and the mixture (10 μl) was reacted at room temperature for 60 minutes.
(§3) Reaction detection: 10 μl of detection reagent was added to the reaction plate containing final concentration of 0.125 μM of SA-XL665 and 5 μl 1×TK-Antibody. The mixture was incubated overnight at room temperature. The plate was read using Synergy Neo 2.
(§4) Data analysis: 665/620 Ratio was converted into inhibition rate (%) through the following formula: inhibition rate (%)=(Ratiomax−Ratiotest)/(Ratiomax−Ratiomin)×100%. Ratiomax is a positive control without detection compound, Ratiomin is a negative control without detection compound and kinase, Ratiotest is the detection value of each concentration of different compounds. 4 parameter curve fitting was performed to measure the IC50 (nM) values. The details are shown in, Table 1.

JAK1 [2] = biological target: T1, JAK1; assay: Cellular JAK1 activity assay: IL-6-stimulated STAT3 phosphorylation in TF-1 cells; format: cell-based; parameters: endogenous in cells; host or cells: TF-1 cells (ATCC); details: IL-6 (30 ng/mL), pSTAT3, read-out: IC50 Cell JAK1
Experimental: (§5) In TF-1 cells, IL-6 stimulation leads to phosphorylation of STAT3 through JAK1, while EPO stimulants phosphorylation of STAT5 via JAK2.
(§6) TF-1 cells were obtained from American Type Culture Collection (ATCC). TF-1 cells were starved overnight (cell density was 100,000 cells/well at plating) in OptiMEM medium without phenol red containing 0.5% fetal bovine serum (FBS), 0.1 mM non-essential amino acids (NEAA), 1 mM sodium pyruvate at 37° C. The compound was serially diluted in DMSO, added to TF-1 cells and incubated at 37° C. for 20 minutes. The final concentration of DMSO was 0.2%. Then, human recombinant cytokine IL-6 (30 ng/mL) or EPO (10 U/mL) was added to the wells containing TF-1 cells. After the cell plate was incubated for 30 minutes, cells were lysed, and the phosphorylation of STAT3 (IL-6) or STAT5 (EPO) in the cell lysate (pSTAT3/total STAT3 Elisa Kit: CST #7300C/CST #7305C; pSTAT5 and total STAT5 Elisa Kit: Abcam #ab205715) was measured. The IC50 value was determined as the concentration of the compound required to inhibit STAT phosphorylation by 50% relative to the measured DMSO control.

JAK2 [3] = biological target: T2, JAK2 (Homo sapiens, UniProt O60674); assay: In vitro JAK2 kinase activity assay (HTRF kinEASE TK); format: biochemical; parameters: purchased Carna Biosciences; details: 2.7 μM ATP, 25 minutes, room temperature; read-out: IC50 JAK2 (enzyme activity assay)
Experimental: as §1, §2
(§7) The reaction included 0.001 ng/μl JAK 2 protein kinase, 1 μM TK Substrate-biotin peptide substrate, 2.7 μM ATP, 1× enzymatic buffer, 5 mM MgCl2, and 1 mM DTT. The detection plate was White Proxiplate 384-Plus plate (PerkinElmer), and the mixture (10 μl) was reacted at room temperature for 25 minutes.
as §3, §4

JAK2 [4] = biological target: T2, JAK2; assay: Cellular JAK2 activity assay: EPO-stimulated STAT5 phosphorylation in TF-1 cells; format: cell-based; parameters: endogenous in cells; host or cells: TF-1 cells (ATCC); details: EPO (10 U/mL), pSTAT5, read-out: IC50 Cell JAK2
Experimental: as §5, §6

JAK3 protein = biological target: T3, JAK3 protein (Homo sapiens, UniProt P52333); assay: In vitro JAK3 kinase activity assay (HTRF kinEASE TK); format: biochemical; details: 0.75 μM ATP, 25 minutes, room temperature; read-out: IC50 JAK3 (enzyme activity assay)
T3 construct: purchased Carna Biosciences
T3 sequence (P52333 1-1124): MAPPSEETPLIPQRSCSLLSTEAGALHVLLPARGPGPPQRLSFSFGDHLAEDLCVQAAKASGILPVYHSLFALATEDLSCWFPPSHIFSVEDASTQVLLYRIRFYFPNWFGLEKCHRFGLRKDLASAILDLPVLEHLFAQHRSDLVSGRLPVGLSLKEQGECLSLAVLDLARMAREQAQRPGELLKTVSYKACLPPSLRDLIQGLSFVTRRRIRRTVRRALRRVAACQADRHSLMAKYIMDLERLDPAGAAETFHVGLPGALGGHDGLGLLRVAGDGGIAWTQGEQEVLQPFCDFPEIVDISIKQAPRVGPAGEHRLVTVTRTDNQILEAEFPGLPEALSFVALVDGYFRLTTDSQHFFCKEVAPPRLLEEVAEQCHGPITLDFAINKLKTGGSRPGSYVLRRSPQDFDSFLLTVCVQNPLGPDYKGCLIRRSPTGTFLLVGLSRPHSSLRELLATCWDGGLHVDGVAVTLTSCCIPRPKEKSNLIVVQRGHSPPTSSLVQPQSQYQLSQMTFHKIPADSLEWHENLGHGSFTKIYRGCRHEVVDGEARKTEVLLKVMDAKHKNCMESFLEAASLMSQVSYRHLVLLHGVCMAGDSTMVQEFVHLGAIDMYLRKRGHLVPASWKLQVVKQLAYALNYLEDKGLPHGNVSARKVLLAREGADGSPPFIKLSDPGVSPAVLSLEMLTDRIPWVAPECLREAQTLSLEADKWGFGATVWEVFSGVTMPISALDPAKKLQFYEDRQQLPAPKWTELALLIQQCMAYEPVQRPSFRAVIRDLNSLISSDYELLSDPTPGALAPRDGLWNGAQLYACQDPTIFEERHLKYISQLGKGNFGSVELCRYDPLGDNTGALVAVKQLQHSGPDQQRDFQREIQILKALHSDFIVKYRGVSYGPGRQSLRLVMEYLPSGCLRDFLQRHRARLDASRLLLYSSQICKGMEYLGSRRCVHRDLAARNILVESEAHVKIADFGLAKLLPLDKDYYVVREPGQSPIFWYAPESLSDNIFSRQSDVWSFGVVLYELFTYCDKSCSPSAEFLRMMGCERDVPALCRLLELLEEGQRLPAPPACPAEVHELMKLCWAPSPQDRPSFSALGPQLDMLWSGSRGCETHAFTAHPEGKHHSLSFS
Experimental: as §1, §2
as §7, with “included […]” for “included 0.001 ng/μl”, “JAK 3” for “JAK 2”, “substrate, 0.75” for “substrate, 2.7”
as §3, §4

Mouse pharmacokinetics = format: in vivo; details: CD-1 mice, 5 mg/kg, P.O.
Experimental: Test compound was intravenously (IV) or orally (PO) administrated to CD-1 mice. Blood samples were collected at different time points as indicated below. The concentration of the compounds in the mouse plasma was determined by LC-MS/MS and related parameters were calculated. The details are as follows: the required amount of the test product was taken to prepare a solution of the required concentration for intravenous injection or oral administration. The age of the animals was about 6-8 weeks at the beginning of the dosing experiment. Blood sampling time points are 0.083 h, 0.25 h, 0.5 h, 1 h, 2 h, 4 h, 8 h and 24 h after compound administration. The Phoenix WinNonlin 7.0 software was used to calculate the pharmacokinetic parameters through the blood drug concentration data at different time points.

T1 sequence (P23458 whole entry): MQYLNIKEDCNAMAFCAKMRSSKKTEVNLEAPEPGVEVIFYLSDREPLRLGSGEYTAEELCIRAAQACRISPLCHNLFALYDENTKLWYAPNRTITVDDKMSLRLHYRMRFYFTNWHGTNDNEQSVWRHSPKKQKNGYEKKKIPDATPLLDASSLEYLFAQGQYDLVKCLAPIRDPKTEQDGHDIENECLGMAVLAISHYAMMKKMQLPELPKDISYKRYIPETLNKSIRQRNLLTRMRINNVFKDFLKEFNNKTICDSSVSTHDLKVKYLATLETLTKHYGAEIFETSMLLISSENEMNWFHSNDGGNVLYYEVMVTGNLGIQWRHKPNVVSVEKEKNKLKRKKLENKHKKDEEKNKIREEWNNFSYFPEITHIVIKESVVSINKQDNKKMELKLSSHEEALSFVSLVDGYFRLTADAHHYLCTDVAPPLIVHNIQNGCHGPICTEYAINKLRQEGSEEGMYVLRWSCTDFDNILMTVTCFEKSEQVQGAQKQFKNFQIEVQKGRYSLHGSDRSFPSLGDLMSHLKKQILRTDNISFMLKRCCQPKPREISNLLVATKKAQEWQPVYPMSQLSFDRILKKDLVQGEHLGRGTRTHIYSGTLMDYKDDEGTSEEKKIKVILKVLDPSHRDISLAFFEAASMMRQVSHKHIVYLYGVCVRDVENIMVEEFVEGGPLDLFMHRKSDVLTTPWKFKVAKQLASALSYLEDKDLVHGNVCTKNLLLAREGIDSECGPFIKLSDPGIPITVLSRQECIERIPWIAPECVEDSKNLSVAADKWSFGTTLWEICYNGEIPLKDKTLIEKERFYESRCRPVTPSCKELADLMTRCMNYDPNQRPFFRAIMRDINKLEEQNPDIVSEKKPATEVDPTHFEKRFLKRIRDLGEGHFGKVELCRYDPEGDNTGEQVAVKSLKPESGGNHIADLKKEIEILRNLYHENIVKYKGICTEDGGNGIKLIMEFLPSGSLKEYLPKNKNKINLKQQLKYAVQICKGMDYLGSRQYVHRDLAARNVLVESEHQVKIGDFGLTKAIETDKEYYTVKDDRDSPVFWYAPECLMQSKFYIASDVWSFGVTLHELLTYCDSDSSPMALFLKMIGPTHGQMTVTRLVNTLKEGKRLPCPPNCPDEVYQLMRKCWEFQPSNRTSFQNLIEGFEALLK
T2 sequence (O60674 whole entry): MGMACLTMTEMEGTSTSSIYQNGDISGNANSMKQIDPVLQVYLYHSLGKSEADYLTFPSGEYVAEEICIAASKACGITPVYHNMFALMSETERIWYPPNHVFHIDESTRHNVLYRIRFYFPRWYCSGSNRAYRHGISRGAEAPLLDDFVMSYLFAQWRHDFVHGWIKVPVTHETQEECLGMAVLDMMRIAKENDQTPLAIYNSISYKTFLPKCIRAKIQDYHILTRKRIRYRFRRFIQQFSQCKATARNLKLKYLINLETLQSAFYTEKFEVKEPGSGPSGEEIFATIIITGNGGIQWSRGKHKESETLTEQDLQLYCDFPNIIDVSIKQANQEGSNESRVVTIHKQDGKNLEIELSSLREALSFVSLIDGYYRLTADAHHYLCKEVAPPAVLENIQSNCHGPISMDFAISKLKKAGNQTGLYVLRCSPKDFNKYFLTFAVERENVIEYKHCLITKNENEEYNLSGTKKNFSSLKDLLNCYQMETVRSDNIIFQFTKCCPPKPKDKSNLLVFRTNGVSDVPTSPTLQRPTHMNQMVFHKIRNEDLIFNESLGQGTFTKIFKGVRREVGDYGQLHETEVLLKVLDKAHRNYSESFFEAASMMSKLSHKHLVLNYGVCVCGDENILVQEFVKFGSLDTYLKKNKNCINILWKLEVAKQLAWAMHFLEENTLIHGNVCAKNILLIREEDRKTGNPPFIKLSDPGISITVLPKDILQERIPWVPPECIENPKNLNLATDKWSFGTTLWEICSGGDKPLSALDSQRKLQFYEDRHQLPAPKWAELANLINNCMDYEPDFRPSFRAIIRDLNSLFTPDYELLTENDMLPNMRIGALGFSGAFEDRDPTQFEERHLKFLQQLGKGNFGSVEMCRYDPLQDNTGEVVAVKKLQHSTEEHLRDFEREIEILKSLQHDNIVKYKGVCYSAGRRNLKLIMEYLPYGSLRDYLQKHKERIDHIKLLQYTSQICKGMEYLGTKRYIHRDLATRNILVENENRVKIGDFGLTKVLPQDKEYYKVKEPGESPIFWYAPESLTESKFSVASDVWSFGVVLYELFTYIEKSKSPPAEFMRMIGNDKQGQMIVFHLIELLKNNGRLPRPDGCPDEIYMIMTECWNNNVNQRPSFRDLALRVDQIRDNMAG

Row | SMILES | IC50 (JAK1 [1]) [nM] | IC50 (JAK1 [2]) [nM] | IC50 (JAK2 [3]) [nM] | IC50 (JAK2 [4]) [nM] | IC50 (JAK3 protein) [nM] | F (Mouse pharmacokinetics) [%] | Cmax (Mouse pharmacokinetics; mouse, po, plasma) [ng/mL] | half-life (Mouse pharmacokinetics; mouse, po, plasma) [h] | AUC(0-t) (Mouse pharmacokinetics; mouse, po, plasma, read-out: AUC0-24 hr) [ng·h/mL]
1 | CCC(C(=O)Nc1nccc2c(-c3nc(Nc4cccc(S(C)(=O)=O)c4F)ncc3C)c[nH]c12)N1CCN(C)CC1 (stereo in doubt) [Example 21, (R)—N-(3-(2-((2-Fluoro-3-(methylsulfonyl)phenyl)amino)-5-methylpyrimidin-4-yl)-1H-pyrrolo[2,3-c]pyridin-7-yl)-2-(4-methylpiperazin-1-yl)butanamide] | < 5 | < 100 | 100 to 10000 | > 20000 | 500 to 10000 | 97.1 | 264 | 2.61 | 1680
2 | CCC(C(=O)Nc1nccc2c(-c3nc(Nc4cn(C)nc4OC)ncc3C)c[nH]c12)N1CC(C)N(C)C(C)C1 (stereo not shown) [Example 10] | 5 to 50 | > 1000 | 100 to 10000 | > 20000 | 500 to 10000 |  |  |  | 
3 | COCCNC(=O)Nc1nccc2c(-c3nc(Nc4cccc(S(C)(=O)=O)c4F)ncc3C)c[nH]c12 [Example 32] | < 5 | > 1000 | < 100 | > 20000 | < 500 |  |  |  | 
4 | CCC(C(=O)Nc1nccc2c(-c3nc(Nc4cn(C)nc4OC)ncc3C)c[nH]c12)N1CCN(C)CC1 (stereo not shown) [Example 2, N-(3-(2-((3-Methoxy-1-methyl-1H-pyrazol-4-yl)amino)-5-methylpyrimidin-4-yl)-1H-pyrrolo[2,3-c]pyridin-7-yl)-2-(4-methylpiperazin-1-yl)butanamide] | 5 to 50 | < 100 | < 100 | < 10000 | < 500 |  |  |  | 
5 | CCC(C(=O)Nc1nccc2c(-c3nc(Nc4cccc(S(C)(=O)=O)c4F)ncc3C)c[nH]c12)N1CC2(CCN(C)CC2)C1 (stereo not shown) [Example 24, N-(3-(2-((2-Fluoro-3-(methylsulfonyl)phenyl)amino)-5-methylpyrimidin-4-yl)-1H-pyrrolo[2,3-c]pyridin-7-yl)-2-(7-methyl-2,7-diazaspiro[3.5]nonane-2-yl)butanamide] | 5 to 50 | 100 to 1000 | 100 to 10000 | > 20000 | 500 to 10000 |  |  |  | 
6 | CC[C@@H](C(=O)Nc1nccc2c(-c3nc(Nc4cn(C)nc4OC)ncc3C)c[nH]c12)N1CCN(C)CC1 [Example 3, (S)—N-(3-(2-((3-Methoxy-1-methyl-1H-pyrazol-4-yl)amino)-5-methylpyrimidin-4-yl)-1H-pyrrolo[2,3-c]pyridin-7-yl)-2-(4-methylpiperazin-1-yl)butanamide] | 5 to 50 | < 100 | < 100 | < 10000 | < 500 |  |  |  | 
7 | CCC(C(=O)Nc1nccc2c(-c3nc(Nc4cccc(S(C)(=O)=O)c4F)ncc3C)c[nH]c12)N1CCN(C)CC1 (stereo not shown) [Example 19, N-(3-(2-((2-Fluoro-3-(methylsulfonyl)phenyl)amino)-5-methylpyrimidin-4-yl)-1H-pyrrolo[2,3-c]pyridin-7-yl)-2-(4-methylpiperazin-1-yl)butanamide] | < 5 | 100 to 1000 | 100 to 10000 | > 20000 | 500 to 10000 |  |  |  | 
8 | Cc1cnc(Nc2cccc(S(C)(=O)=O)c2F)nc1-c1c[nH]c2c(NC(=O)NC(C)C)ncnc12 [Example 33] | 5 to 50 | > 1000 | 100 to 10000 | > 20000 | < 500 |  |  |  | 
9 | COc1nn(C)cc1Nc1ncc(C)c(-c2c[nH]c3c(NC(=O)C(C(C)C)N4CCN(C)CC4)nccc23)n1 (stereo not shown) [Example 6] | 5 to 50 | 100 to 1000 | < 100 | < 10000 | < 500 |  |  |  | 
10 | CCC(C(=O)Nc1nccc2c(-c3nc(Nc4cccc(S(C)(=O)=O)c4F)ncc3F)c[nH]c12)N1CCN(C)CC1 (stereo not shown) [Example 27, N-(3-(5-Fluoro-2-((2-fluoro-3-(methylsulfonyl)phenyl)amino)pyrimidin-4-yl)-1H-pyrrolo[2,3-c]pyridin-7-yl)-2-(4-methylpiperazin-1-yl) butanamide] | < 5 | 100 to 1000 | 100 to 10000 | > 20000 | 500 to 10000 |  |  |  | 
11 | COc1nn(C)cc1Nc1ncc(C)c(-c2c[nH]c3c(NC(=O)[C@@H](C)N4CCOCC4)nccc23)n1 [Example 7] | 5 to 50 | 100 to 1000 | < 100 | 10000 to 20000 | < 500 |  |  |  | 
12 | CCC(C(=O)Nc1nccc2c(-c3nc(Nc4cccc(S(=O)(=O)CC)c4F)ncc3C)c[nH]c12)N1CCN(C)CC1 (stereo not shown) [Example 28] | < 5 | 100 to 1000 | < 100 | 10000 to 20000 | 500 to 10000 |  |  |  | 
